From US11999746B2, “Compounds” (GlaxoSmithKline Intellectual Property Development Limited, priority 2014, dated 2024)

Columns and labels:
[1] = system: experimental autoimmune encephalomyelitis (EAE) rats; experiment: Rat experimental autoimmune encephalomyelitis (EAE) model, preventive treatment; format: in vivo; conditions: compound administered from day 0 until day 22
Method: A further study was carried out to study the impact of Lp-PLA2 inhibitors on modulating M1/M2 imbalance. In this study, rats were induced to develop experimental autoimmune encephalomyelitis (EAE) by immunization with myelin basic protein (MBP) antigen and treated with a known Lp-PLA2 inhibitor: 5-((9-Methoxy-4-oxo-6,7-dihydro-4H-pyrimido[6,1-a]isoquinolin-2-yl)oxy)-2-(3-(trifluoromethyl)phenoxy)benzonitrile (See PCT application no. PCT/CN2011/001597). In this preventive treatment model, the compound was administered at day 0 (day of immunization) and continued to administer until day 22. The study lasted for 25 days. Rats were subsequently monitored for symptoms of EAE. Rats were immunized with MBP to develop EAE and symptoms were monitored daily. Plasma Lp-PLA2 activity, OxLDL, and LysoPC concentration were determined at different time points through the course of EAE.

[2] = system: proinflammatory (M1) and anti-inflammatory (M2) markers in splenic and CNS infiltrating macrophages; experiment: Ex vivo analysis of M1 and M2 markers in macrophages of EAE rats by realtime PCR; set-up: species or system rat; conditions: macrophages of compound treated EAE rats, splenic macrophages harvested at day 13 post MBP-immunization
Method: Ex vivo analysis of proinflammatory (M1) and anti-inflammatory (M2) markers in control and compound treated EAE rats. Splenic macrophages were harvested at day 13 post MBP-immunization and assayed for expression of a variety of markers by realtime PCR. CNS infiltrating cells were harvested and macrophages were analyzed for expression of M1 and M2 markers by realtime PCR.

## COc1ccc2c(c1)CCn1c-2cc(Oc2ccc(Oc3cccc(C(F)(F)F)c3)c(C#N)c2)nc1=O [5-((9-Methoxy-4-oxo-6,7-dihydro-4H-pyrimido[6,1-a]isoquinolin-2-yl)oxy)-2-(3-(trifluoromethyl)phenoxy)benzonitrile]
[1]; rat EAE plasma
  plasma Lp-PLA2 activity: decreased
  plasma LysoPC levels: decreased
[1]; rats immunized with MBP, study lasted 25 days
  clinical disease (symptoms of EAE): reduction in clinical disease
[2]
  M1 (proinflammatory) markers: decrease
  M2 (anti-inflammatory) markers: increase
